Reference: ChEMBL document CHEMBL5036301, “Heteroaryl ether analogues of an antileishmanial 7-substituted 2-nitroimidazooxazine lead afford attenuated hERG risk: In vitro and in vivo appraisal” (Eur J Med Chem, 2021)
In brackets after ≈: the same amount, converted by molar mass.

Experiments:
Leishmania donovani [1] = experiment: Antileishmanial activity against Leishmania donovani amastigotes infected in mouse J774A.1 cells incubated for 72 hrs by luciferase assay; format: functional, organism-based; settings: J774.A1, 72 h
Leishmania donovani [2] = experiment: Antileishmanial activity against Leishmania donovani amastigotes infected in BALB/C mouse assessed as reduction in parasite burden in liver tissue at 25 mg/kg, po administered once per day for 5 days relative to control; settings: 120 h, read-out: INH
Leishmania donovani [3] = experiment: Antileishmanial activity against Leishmania donovani amastigotes infected in BALB/C mouse assessed as reduction in parasite burden in liver tissue at 6.25 mg/kg, po administered once per day for 5 days relative to control; format: functional; settings: 120 h, time 5 day
Leishmania donovani [4] = experiment: Antileishmanial activity against Leishmania donovani amastigotes infected in BALB/C mouse assessed as reduction in parasite burden in liver tissue at 3.13 mg/kg, po administered once per day for 5 days relative to control; format: functional; settings: 120 h, time 5 day
Leishmania infantum [5] = experiment: Antileishmanial activity against Leishmania infantum amastigotes infected in golden hamster assessed as reduction in parasite load in liver tissue at 50 mg/kg, po administered once daily for 5 days relative to control; format: functional; settings: 120 h, time 5 day
Leishmania infantum [6] = experiment: Antileishmanial activity against Leishmania infantum amastigotes infected in golden hamster assessed as reduction in parasite load in spleen tissue at 50 mg/kg, po administered once daily for 5 days relative to control; format: functional; settings: 120 h, time 5 day
Leishmania infantum [7] = experiment: Antileishmanial activity against Leishmania infantum amastigotes infected in golden hamster assessed as reduction in parasite load in bone marrow tissue at 50 mg/kg, po administered once daily for 5 days relative to control; format: functional; settings: 120 h, time 5 day
Leishmania infantum [8] = experiment: Antileishmanial activity against Leishmania infantum amastigotes infected in golden hamster assessed as reduction in parasite load in liver tissue at 25 mg/kg, po administered once daily for 5 days relative to control; settings: in Mesocricetus auratus, 120 h, read-out: INH
Leishmania infantum [9] = experiment: Antileishmanial activity against Leishmania infantum amastigotes infected in golden hamster assessed as reduction in parasite load in spleen tissue at 25 mg/kg, po administered once daily for 5 days relative to control; settings: in Mesocricetus auratus, 120 h, read-out: INH
Leishmania infantum [10] = experiment: animal or person; settings: in Mesocricetus auratus, po, 120 h, read-out: INH
Description: Antileishmanial activity against Leishmania infantum amastigotes infected in golden hamster assessed as reduction in parasite load in liver tissue at 12.5 mg/kg, po administered once daily for 5 days relative to control

Leishmania infantum [11] = experiment: animal or person; settings: in Mesocricetus auratus, po, 120 h, read-out: INH; remark: listed apart in the source
Description: Antileishmanial activity against Leishmania infantum amastigotes infected in golden hamster assessed as reduction in parasite load in spleen tissue at 12.5 mg/kg, po administered once daily for 5 days relative to control

Leishmania infantum [12] = experiment: animal or person; settings: in Mesocricetus auratus, po, 120 h, read-out: INH; remark: listed apart in the source
Description: Antileishmanial activity against Leishmania infantum amastigotes infected in golden hamster assessed as reduction in parasite load in bone marrow tissue at 12.5 mg/kg, po administered once daily for 5 days relative to control

Leishmania infantum [13] = experiment: Antileishmanial activity against Leishmania infantum MHOM/MA(BE)/67 amastigotes infected in macrophages assessed as reduction in parasite burden by giemsa staining based microscopic analysis; format: functional, organism-based
Trypanosoma cruzi = experiment: Antitrypanosomal activity against Trypanosoma cruzi Tulahuen CL2 infected in human MRC-5 cells assessed as parasite growth; format: functional, organism-based; settings: Tulahuen CL2, MRC5
MRC5 = experiment: Cytotoxicity against human MRC5 cells assessed as cell viability after 72 hrs by fluorimetric analysis; format: ADME, cell-based; settings: MRC5, 72 h
[14] = Kinetic solubility of compound in water at pH7 by HPLC analysis; settings: pH 7
Leishmania donovani [15] = experiment: Antileishmanial activity against Leishmania donovani amastigotes infected in BALB/C mouse assessed as reduction in parasite burden in liver tissue at 50 mg/kg, po administered once per day for 5 days relative to control; format: functional; settings: 120 h, time 5 day
[16] = Half life in mouse at 25 mg/kg, po measured upto 24 hrs LC-MS/MS analysis; settings: in vivo
[17] = AUClast in mouse at 25 mg/kg, po measured upto 24 hrs LC-MS/MS analysis; settings: in vivo
[18] = AUClast in hamster at 41 to 51 mg/kg, po measured upto 24 hrs LC-MS/MS analysis; settings: chinese hamster, in vivo
in vivo [19] = settings: mouse, po, 25 mg/kg
in vivo [20] = settings: mouse, po, 25 mg/kg; remark: listed apart in the source
in vivo [21] = settings: chinese hamster, po
in vivo [22] = settings: chinese hamster, po; remark: listed apart in the source
[23] = tested on: Mycobacterium tuberculosis; experiment: Antitubercular activity against Mycobacterium tuberculosis H37Rv assessed as reduction in microbial growth under aerobic condition by luminescence analysis; format: functional
[24] = tested on: Mycobacterium tuberculosis; experiment: Antitubercular activity against Mycobacterium tuberculosis H37Rv assessed as reduction in microbial growth under anaerobic condition by luminescence analysis; format: functional
[25] = Half life in hamster at 41 to 51 mg/kg, po measured upto 24 hrs LC-MS/MS analysis; settings: chinese hamster, in vivo
[26] = Kinetic solubility of compound in 0.1 M Hcl at pH1 by HPLC analysis; format: physicochemical; settings: pH 1, read-out: Kinetic_solubility
hERG (KCNH2) = hERG (KCNH2) (Homo sapiens, UniProt Q12809); experiment: Inhibition of human ERG expressed in HEK293 cells at 10 uM relative to control; format: cell-based; settings: HEK293 cells expressing human ERG
[27] = Initial plasma concentration in mouse at 1 mg/kg, iv measured upto 24 hrs LC-MS/MS analysis
[28] = Clearance in mouse at 1 mg/kg, iv measured upto 24 hrs LC-MS/MS analysis; settings: in vivo
[29] = Volume of distribution at steady state in mouse at 1 mg/kg, iv measured upto 24 hrs LC-MS/MS analysis; settings: in vivo
[30] = Half life in mouse at 1 mg/kg, iv measured upto 24 hrs LC-MS/MS analysis; settings: in vivo
[31] = AUClast in mouse at 1 mg/kg, iv measured upto 24 hrs LC-MS/MS analysis; settings: in vivo, 24 h
[32] = mouse, in vivo, po, 25 mg/kg, 24 h

hERG (KCNH2), sequence (Q12809 whole entry): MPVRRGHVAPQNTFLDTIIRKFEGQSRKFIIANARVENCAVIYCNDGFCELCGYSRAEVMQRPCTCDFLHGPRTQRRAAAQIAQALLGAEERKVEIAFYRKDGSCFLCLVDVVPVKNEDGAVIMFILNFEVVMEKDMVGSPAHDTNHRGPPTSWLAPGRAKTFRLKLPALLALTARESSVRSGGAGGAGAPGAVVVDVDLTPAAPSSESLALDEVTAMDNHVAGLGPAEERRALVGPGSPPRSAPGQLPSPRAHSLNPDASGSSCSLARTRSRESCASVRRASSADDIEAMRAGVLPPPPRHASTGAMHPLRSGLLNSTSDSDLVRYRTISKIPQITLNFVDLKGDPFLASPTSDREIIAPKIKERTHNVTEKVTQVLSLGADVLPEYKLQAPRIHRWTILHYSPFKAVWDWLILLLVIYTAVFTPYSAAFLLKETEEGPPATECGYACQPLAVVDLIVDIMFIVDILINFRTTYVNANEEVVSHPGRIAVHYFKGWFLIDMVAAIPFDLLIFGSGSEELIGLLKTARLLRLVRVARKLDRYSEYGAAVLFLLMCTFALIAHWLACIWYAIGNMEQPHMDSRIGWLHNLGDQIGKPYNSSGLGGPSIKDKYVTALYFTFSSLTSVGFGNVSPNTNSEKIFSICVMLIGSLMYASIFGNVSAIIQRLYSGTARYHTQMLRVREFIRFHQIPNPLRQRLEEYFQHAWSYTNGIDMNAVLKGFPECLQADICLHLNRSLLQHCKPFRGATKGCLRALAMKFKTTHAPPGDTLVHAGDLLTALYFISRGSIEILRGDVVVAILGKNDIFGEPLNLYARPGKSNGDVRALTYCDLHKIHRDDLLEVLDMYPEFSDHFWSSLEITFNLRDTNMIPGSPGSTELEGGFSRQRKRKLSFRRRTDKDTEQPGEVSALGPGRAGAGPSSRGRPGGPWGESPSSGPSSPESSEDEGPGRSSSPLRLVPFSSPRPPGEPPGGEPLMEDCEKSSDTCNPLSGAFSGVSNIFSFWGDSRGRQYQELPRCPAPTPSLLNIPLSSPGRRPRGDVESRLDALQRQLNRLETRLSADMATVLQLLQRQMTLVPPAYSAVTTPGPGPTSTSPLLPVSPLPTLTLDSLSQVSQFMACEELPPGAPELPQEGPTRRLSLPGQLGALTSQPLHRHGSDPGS

Row | SMILES | IC50 (Leishmania donovani [1]) [nM] | inhibition in vivo at 50 mg/kg (Leishmania infantum [5]) [%] | inhibition in vivo at 50 mg/kg (Leishmania infantum [6]) [%] | inhibition in vivo at 50 mg/kg (Leishmania infantum [7]) [%] | IC50 (Leishmania infantum [13]) [nM] | IC50 (Trypanosoma cruzi) [nM] | IC50 (MRC5) [nM] | solubility kinetic [14] [µg/mL] | inhibition in vivo at 50 mg/kg (Leishmania donovani [15]) [%] | half-life at 24 h [16] [h] | AUC(0-t) at 24 h [17] [ng·h/mL] | AUC(0-t) at 24 h [18] [ng·h/mL] | Cmax at 24 h (in vivo [19]) [ng/mL] | Tmax at 24 h (in vivo [20]) [h] | Cmax at 24 h (in vivo [21]) [ng/mL] | Tmax at 24 h (in vivo [22]) [h] | MIC [23] [µM] | MIC [24] [µM] | other results
1 | C[C@@]1(COc2ccc(OC(F)(F)F)cc2)CCn2cc([N+](=O)[O-])nc2O1 | 370 | 100 | 99.9 | 99.7 | – | – | – | – | – | – | – | – | – | – | – | – | – | – | inhibition in vivo at 25 mg/kg (Leishmania donovani [2]): 66%; inhibition in vivo at 6.25 mg/kg (Leishmania donovani [3]): 49%; inhibition in vivo at 3.13 mg/kg (Leishmania donovani [4]): 18%; inhibition in vivo at 25 mg/kg (Leishmania infantum [8]): 97.2%; inhibition in vivo at 25 mg/kg (Leishmania infantum [9]): 92.3%; inhibition in vivo at 12.5 mg/kg (Leishmania infantum [10]): 47.3%; inhibition in vivo at 12.5 mg/kg (Leishmania infantum [11]): 44.4%; inhibition in vivo at 12.5 mg/kg (Leishmania infantum [12]): 0%
2 | C[C@@]1(COc2ccc(C(F)(F)F)cn2)CCn2cc([N+](=O)[O-])nc2O1 | – | 46.5 | 52.3 | 37.4 | 750 | 980 | > 64000 | 21 (≈ 58.6 µM) | 38 | 1.5 | 183000 | 924 | 33000 | 2 | 310 | 4.3 | – | – | –
3 | C[C@]1(COc2ccc(C(F)(F)F)cn2)CCn2cc([N+](=O)[O-])nc2O1 | – | 51.8 | 47.1 | 54 | 290 | 340 | > 64000 | 26 (≈ 72.6 µM) | 84 | 1.5 | 39600 | 72 | 9500 | 3.7 | 45 | 0.75 | 0.16 | 3.8 | half-life at 24 h [25]: 0.72 h
4 | CC1(COc2ccc(C(F)(F)F)cn2)CCn2cc([N+](=O)[O-])nc2O1 (centres undefined) | 210 | – | – | – | 270 | 290 | > 64000 | 19 (≈ 53 µM) | 96 | – | – | – | 15000 | 0.5 | – | – | 0.6 | 8.9 | solubility kinetic [26]: 12 µg/mL (≈ 33.5 µM); inhibition at 10 µM (hERG (KCNH2)): 18%; C0 at 24 h [27]: 810 ng/mL; clearance at 24 h [28]: 31 mL/min/kg; Vd at 24 h [29]: 1.3 L/kg; half-life at 24 h [30]: 0.85 h; AUClast [31]: 544 ng·h/mL; AUClast ([17]; 24 h): 57100 ng·h/mL; F [32]: 100%
